Source: US20240124432A1, “HERBICIDAL COMPOUNDS” (SYNGENTA CROP PROTECTION AG, priority 2020, published 2024)

Columns and labels:
Type in all cases: in vivo
AMAPA [1] = assay: Pre-emergence biological efficacy; conditions: Amaranthus palmeri, 312 h, evaluated after 13 days, read-out: damage to plant (100=total damage to plant; 0=no damage to plant)
Outline: (§1)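 Injury rating (0 = no damage, 100 = plant killed) taken 13 days after a single spray of compound at the chosen dose onto freshly sown pots held 1 day in the glasshouse beforehand.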

ECHCG [2] = assay: Pre-emergence biological efficacy; conditions: Echinochloa crus-galli, 312 h, evaluated after 13 days, read-out: damage to plant (100=total damage to plant; 0=no damage to plant)
Outline: as §1

EPHHL [3] = assay: Pre-emergence biological efficacy; conditions: Euphorbia heterophylla, 312 h, evaluated after 13 days, read-out: damage to plant (100=total damage to plant; 0=no damage to plant)
Outline: as §1

IPOHE [4] = assay: Pre-emergence biological efficacy; conditions: Ipomoea hederacea, 312 h, evaluated after 13 days, read-out: damage to plant (100=total damage to plant; 0=no damage to plant)
Outline: as §1

LOLPE [5] = assay: Pre-emergence biological efficacy; conditions: Lolium perenne, 312 h, evaluated after 13 days, read-out: damage to plant (100=total damage to plant; 0=no damage to plant)
Outline: as §1

SETFA [6] = assay: Pre-emergence biological efficacy; conditions: Setaria faberi, 312 h, evaluated after 13 days, read-out: damage to plant (100=total damage to plant; 0=no damage to plant)
Outline: as §1

AMAPA [7] = assay: Post-emergence biological efficacy; conditions: Amaranthus palmeri, 312 h, evaluated after 13 days, read-out: damage to plant (100=total damage to plant; 0=no damage to plant)
Outline: (§2)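 Plants grown 14 days in glasshouse, then sprayed post-emergence with compound formulated in IF50 and diluted in 0.2% Genapol XO80 to the desired dose. Damage scored after 13 days on a 0–100 scale (100 = total damage).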

CHEAL = assay: Post-emergence biological efficacy; conditions: Chenopodium album, 312 h, evaluated after 13 days, read-out: damage to plant (100=total damage to plant; 0=no damage to plant)
Outline: as §2

DIGSA = assay: Post-emergence biological efficacy; conditions: Digitaria sanguinalis, 312 h, evaluated after 13 days, read-out: damage to plant (100=total damage to plant; 0=no damage to plant)
Outline: as §2

ECHCG [8] = assay: Post-emergence biological efficacy; conditions: Echinochloa crus-galli, 312 h, evaluated after 13 days, read-out: damage to plant (100=total damage to plant; 0=no damage to plant)
Outline: as §2

ELEIN = assay: Post-emergence biological efficacy; conditions: 312 h, evaluated after 13 days, read-out: damage to plant (100=total damage to plant; 0=no damage to plant)
Outline: as §2

EPHHL [9] = assay: Post-emergence biological efficacy; conditions: Euphorbia heterophylla, 312 h, evaluated after 13 days, read-out: damage to plant (100=total damage to plant; 0=no damage to plant)
Outline: as §2

IPOHE [10] = assay: Post-emergence biological efficacy; conditions: Ipomoea hederacea, 312 h, evaluated after 13 days, read-out: damage to plant (100=total damage to plant; 0=no damage to plant)
Outline: as §2

LOLPE [11] = assay: Post-emergence biological efficacy; conditions: Lolium perenne, 312 h, evaluated after 13 days, read-out: damage to plant (100=total damage to plant; 0=no damage to plant)
Outline: as §2

SETFA [12] = assay: Post-emergence biological efficacy; conditions: Setaria faberi, 312 h, evaluated after 13 days, read-out: damage to plant (100=total damage to plant; 0=no damage to plant)
Outline: as §2

Compound	pest or weed control at 250 g/ha (AMAPA [1])	pest or weed control at 250 g/ha (ECHCG [2])	pest or weed control at 250 g/ha (EPHHL [3])	pest or weed control at 250 g/ha (IPOHE [4])	pest or weed control at 250 g/ha (LOLPE [5])	pest or weed control at 250 g/ha (SETFA [6])	pest or weed control at 250 g/ha (AMAPA [7])	pest or weed control at 250 g/ha (CHEAL)	pest or weed control at 250 g/ha (DIGSA)	pest or weed control at 250 g/ha (ECHCG [8])	pest or weed control at 250 g/ha (ELEIN)	pest or weed control at 250 g/ha (EPHHL [9])	pest or weed control at 250 g/ha (IPOHE [10])	pest or weed control at 250 g/ha (LOLPE [11])	pest or weed control at 250 g/ha (SETFA [12])
CCOC(=O)C1(C)CC(c2cc(-c3ccnc(C(F)(F)F)c3)c(F)cc2Cl)=NO1 (stereo not drawn) [Compound 1-499, Ethyl 3-[2-chloro-4-fluoro-5-[2-(trifluoromethyl)-4-pyridyl]-phenyl]-5-methyl-4H-isoxazole-5-carboxylate]	20%	0%	0%	0%	20%	0%	80%	80%	60%	50%	60%	50%	70%	0%	80%
CCOC(=O)C1(C)CC(c2cc(-c3cc(Cl)ncc3OC)c(F)cc2Cl)=NO1 (stereo not drawn) [Compound 1-511, Ethyl 3-[2-chloro-5-(2-chloro-5-methoxy-4-pyridyl)-4-fluoro-phenyl]-5-methyl-4H-isoxazole-5-carboxylate]	0%	0%	0%	0%	0%	0%	40%	50%	30%	30%	40%	50%	60%	0%	30%
CCOC(=O)C1(C)CC(c2cc(-c3cc(Cl)nc(OC)c3)c(F)cc2Cl)=NO1 (stereo not drawn) [Compound 1-523, Ethyl 3-[2-chloro-5-(2-chloro-6-methoxy-4-pyridyl)-4-fluoro-phenyl]-5-methyl-4H-isoxazole-5-carboxylate]	0%	20%	0%	0%	0%	0%	50%	40%	50%	20%	10%	50%	60%	0%	50%
CCOC(=O)C1(C)CC(c2cc(-c3ncc(F)cc3F)c(F)cc2Cl)=NO1 (stereo not drawn) [Compound 1-551, Ethyl 3-[2-chloro-5-(3,5-difluoro-2-pyridyl)-4-fluoro-phenyl]-5-methyl-4H-isoxazole-5-carboxylate]	80%	80%	50%	60%	50%	90%	100%	100%	100%	100%	100%	90%	100%	100%	100%
CCOC(=O)C1(C)CC(c2cc(-c3ncc(Br)cc3Cl)c(F)cc2Cl)=NO1 (stereo not drawn) [Compound 1-559, Ethyl 3-[5-(5-bromo-3-chloro-2-pyridyl)-2-chloro-4-fluoro-phenyl]-5-methyl-4H-isoxazole-5-carboxylate]	100%	90%	50%	10%	50%	80%	100%	100%	80%	100%	90%	100%	100%	90%	100%
